The values that follow are results of earlier work, collected in patent publication US20100022444A1, “COMBINATION THERAPY FOR MODULATION OF ACTIVITY AND DEVELOPMENT OF CELLS AND TISSUES” (BodyBio, Inc., priority 2008, published 2010).

The test system of this data set is mouse model of Bulbar ALS. The settings on record: oral administration.

In the case of `CCCC(=O)[O-].[Na+]` [sodium butyrate], the “acetylation of nuclear histone in neural tissues” value is “increased acetylation of nuclear histone in neural tissues” and the neurological phenotypes entry is on record as “successfully ameliorated neurological phenotypes”.
